“And” between values parts separate entries of the source, which are not always exact repeats. Equal values may be shown once. Inconclusive results and toxic doses are left out.
System: L1210 leukemia ip in BDF1 mice, survival T/C
Test: NCI In Vivo Anticancer Drug Screen. Data for tumor model L1210 Leukemia (intraperitoneal) in B6D2F1 (BDF1) mice
Details: endpoint: mean survival time, higher = longer survival
How it was run: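 Ratio derived from survival: compound-dosed mice over vehicle-dosed mice, all bearing a transplantable tumor.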

[1] = dose: 100.0 mg/kg/injection, schedule: Q01DX001 (ip), vehicle: carboxymethylcellulose (CMC)
[2] = dose: 200.0 mg/kg/injection, schedule: Q01DX001 (ip), vehicle: carboxymethylcellulose (CMC)
[3] = dose: 400.0 mg/kg/injection, schedule: Q01DX001 (ip), vehicle: carboxymethylcellulose (CMC)
[4] = dose: 150.0 mg/kg/injection, schedule: Q04DX003 (ip), vehicle: saline
[5] = dose: 200.0 mg/kg/injection, schedule: Q04DX002 (ip), vehicle: Klucel (hydroxypropylcellulose) (HPC)
[6] = dose: 400.0 mg/kg/injection, schedule: Q01DX009 (ip), vehicle: saline with Tween-80
[7] = dose: 50.0 mg/kg/injection, schedule: Q01DX009 (ip), vehicle: Klucel (hydroxypropylcellulose) (HPC)
[8] = dose: 100.0 mg/kg/injection, schedule: Q04DX003 (ip), vehicle: Klucel (hydroxypropylcellulose) (HPC)
[9] = dose: 200.0 mg/kg/injection, schedule: Q04DX003 (ip), vehicle: Klucel (hydroxypropylcellulose) (HPC)
[10] = dose: 100.0 mg/kg/injection, schedule: Q04DX003 (ip), vehicle: saline with Tween-80
[11] = dose: 100.0 mg/kg/injection, schedule: Q01DX009 (ip), vehicle: saline

O=[N+]([O-])c1cc(C(F)(F)F)cc([N+](=O)[O-])c1N/N=C/c1ccc(Cl)cc1
T/C (dose: 12.5 mg/kg/injection, schedule: Q01DX009 (ip), vehicle: carboxymethylcellulose (CMC)): 95 % of control and 102 % of control | T/C (dose: 25.0 mg/kg/injection, schedule: Q01DX009 (ip), vehicle: carboxymethylcellulose (CMC)): 97 % of control and 88 % of control | T/C [1]: 100 % of control and 103 % of control | T/C (dose: 100.0 mg/kg/injection, schedule: Q04DX002 (ip), vehicle: carboxymethylcellulose (CMC)): 100 % of control and 105 % of control | T/C (dose: 100.0 mg/kg/injection, schedule: Q04DX003 (ip), vehicle: carboxymethylcellulose (CMC)): 92 % of control and 101 % of control | T/C [2]: 103 % of control and 91 % of control | T/C (dose: 200.0 mg/kg/injection, schedule: Q04DX002 (ip), vehicle: carboxymethylcellulose (CMC)): 98 % of control and 90 % of control | T/C (dose: 200.0 mg/kg/injection, schedule: Q04DX003 (ip), vehicle: carboxymethylcellulose (CMC)): 94 % of control and 96 % of control | T/C [3]: 103 % of control and 105 % of control | T/C (dose: 400.0 mg/kg/injection, schedule: Q01DX009 (ip), vehicle: carboxymethylcellulose (CMC)): 86 % of control and 90 % of control | T/C (dose: 400.0 mg/kg/injection, schedule: Q04DX002 (ip), vehicle: carboxymethylcellulose (CMC)): 86 % of control and 87 % of control | T/C (dose: 400.0 mg/kg/injection, schedule: Q04DX003 (ip), vehicle: carboxymethylcellulose (CMC)): 92 % of control and 96 % of control

Cc1ccc(S(=O)(=O)NC(CO)C(=O)O)cc1 (stereo not given)
T/C (dose: 37.5 mg/kg/injection, schedule: Q01DX009 (ip), vehicle: saline): 96 % of control | T/C (dose: 75.0 mg/kg/injection, schedule: Q01DX001 (ip), vehicle: saline): 103 % of control | T/C (dose: 75.0 mg/kg/injection, schedule: Q01DX009 (ip), vehicle: saline): 98 % of control | T/C (dose: 75.0 mg/kg/injection, schedule: Q04DX003 (ip), vehicle: saline): 102 % of control | T/C (dose: 150.0 mg/kg/injection, schedule: Q01DX001 (ip), vehicle: saline): 92 % of control | T/C (dose: 150.0 mg/kg/injection, schedule: Q01DX009 (ip), vehicle: saline): 106 % of control | T/C [4]: 103 % of control | T/C (dose: 300.0 mg/kg/injection, schedule: Q01DX001 (ip), vehicle: saline): 98 % of control | T/C (dose: 300.0 mg/kg/injection, schedule: Q04DX003 (ip), vehicle: saline): 102 % of control

O=CNc1ccc2c(c1)Cc1cc(Cl)ccc1-2
T/C (dose: 30.0 mg/kg/injection, schedule: Q01DX015 (ip), vehicle: carboxymethylcellulose (CMC)): 97 % of control | T/C (dose: 60.0 mg/kg/injection, schedule: Q01DX015 (ip), vehicle: carboxymethylcellulose (CMC)): 106 % of control | T/C (dose: 120.0 mg/kg/injection, schedule: Q01DX015 (ip), vehicle: carboxymethylcellulose (CMC)): 97 % of control

CN(C)Cc1ccccc1COC(=O)c1cccc(Br)c1
T/C (dose: 100.0 mg/kg/injection, schedule: Q04DX002 (ip), vehicle: Klucel (hydroxypropylcellulose) (HPC)): 98 % of control | T/C [5]: 102 % of control

c1ccc2c(c1)Nc1ccncc1S2
T/C (dose: 100.0 mg/kg/injection, schedule: Q01DX009 (ip), vehicle: saline with Tween-80): 95 % of control | T/C (dose: 200.0 mg/kg/injection, schedule: Q01DX009 (ip), vehicle: saline with Tween-80): 90 % of control | T/C [6]: 101 % of control

O=C(/C=C\C(Cl)(Cl)Cl)c1ccccc1
T/C (dose: 100.0 mg/kg/injection, schedule: Q01DX001 (ip), vehicle: Klucel (hydroxypropylcellulose) (HPC)): 93 % of control | T/C (dose: 200.0 mg/kg/injection, schedule: Q01DX001 (ip), vehicle: Klucel (hydroxypropylcellulose) (HPC)): 93 % of control | T/C (dose: 400.0 mg/kg/injection, schedule: Q01DX001 (ip), vehicle: Klucel (hydroxypropylcellulose) (HPC)): 97 % of control

NS(=O)(=O)c1ccc(Br)cc1
T/C (dose: 25.0 mg/kg/injection, schedule: Q04DX003 (ip), vehicle: saline): 106 % of control | T/C (dose: 50.0 mg/kg/injection, schedule: Q04DX003 (ip), vehicle: saline): 97 % of control | T/C (dose: 100.0 mg/kg/injection, schedule: Q04DX003 (ip), vehicle: saline): 100 % of control | T/C [4]: 105 % of control | T/C (dose: 225.0 mg/kg/injection, schedule: Q04DX003 (ip), vehicle: saline): 102 % of control | T/C (dose: 335.0 mg/kg/injection, schedule: Q04DX003 (ip), vehicle: saline): 105 % of control

CCOC(=O)N1c2ccccc2C=CC1/C(N)=N/O (stereo not given)
T/C [7]: 95 % of control | T/C (dose: 100.0 mg/kg/injection, schedule: Q01DX009 (ip), vehicle: Klucel (hydroxypropylcellulose) (HPC)): 89 % of control | T/C [8]: 97 % of control | T/C [9]: 91 % of control

COc1cc(NS(C)(=O)=O)ccc1Nc1c2ccccc2nc2cc(C(F)(F)F)c(N)cc12
T/C [7]: 113 % of control and 123 % of control | T/C (dose: 50.0 mg/kg/injection, schedule: Q04DX003 (ip), vehicle: Klucel (hydroxypropylcellulose) (HPC)): 118 % of control | T/C [8]: 123 % of control | T/C (dose: 200.0 mg/kg/injection, schedule: Q01DX009 (ip), vehicle: Klucel (hydroxypropylcellulose) (HPC)): 153 % of control and 174 % of control | T/C [5]: 162 % of control | T/C (dose: 400.0 mg/kg/injection, schedule: Q04DX002 (ip), vehicle: Klucel (hydroxypropylcellulose) (HPC)): 179 % of control | T/C (dose: 400.0 mg/kg/injection, schedule: Q04DX003 (ip), vehicle: Klucel (hydroxypropylcellulose) (HPC)): 112 % of control

N#CC12OC1(C#N)C(=O)c1ccccc1C2=O (stereo not given)
T/C (dose: 75.0 mg/kg/injection, schedule: Q01DX001 (ip), vehicle: Klucel (hydroxypropylcellulose) (HPC)): 92 % of control

CC1=C(C)C(=O)OC1=O
T/C [8]: 97 % of control | T/C [9]: 98 % of control

CN=Cc1ccccc1
T/C (dose: 50.0 mg/kg/injection, schedule: Q04DX003 (ip), vehicle: saline with Tween-80): 91 % of control | T/C [10]: 94 % of control

CC(C)C1CCC(C)(Cl)C2CCC(C)(Cl)CC12 (stereo not given)
T/C [11]: 96 % of control | T/C (dose: 200.0 mg/kg/injection, schedule: Q01DX009 (ip), vehicle: saline): 91 % of control | T/C (dose: 400.0 mg/kg/injection, schedule: Q01DX009 (ip), vehicle: saline): 89 % of control

Cc1ccc(Cl)cc1NC(=O)Nc1cccc(C(F)(F)F)c1
T/C (dose: 50.0 mg/kg/injection, schedule: Q01DX009 (ip), vehicle: saline with Tween-80): 97 % of control and 90 % of control | T/C (dose: 100.0 mg/kg/injection, schedule: Q04DX002 (ip), vehicle: saline with Tween-80): 102 % of control and 88 % of control | T/C [10]: 101 % of control | T/C (dose: 200.0 mg/kg/injection, schedule: Q04DX002 (ip), vehicle: saline with Tween-80): 98 % of control and 90 % of control | T/C (dose: 200.0 mg/kg/injection, schedule: Q04DX003 (ip), vehicle: saline with Tween-80): 96 % of control | T/C [6]: 105 % of control and 90 % of control | T/C (dose: 400.0 mg/kg/injection, schedule: Q04DX002 (ip), vehicle: saline with Tween-80): 104 % of control and 91 % of control | T/C (dose: 400.0 mg/kg/injection, schedule: Q04DX003 (ip), vehicle: saline with Tween-80): 91 % of control

CC(=O)C[N+]12CN3CN(CN(C3)C1)C2
T/C (dose: 25.0 mg/kg/injection, schedule: Q01DX009 (ip), vehicle: saline): 96 % of control | T/C (dose: 50.0 mg/kg/injection, schedule: Q01DX005 (ip), vehicle: saline): 103 % of control | T/C (dose: 50.0 mg/kg/injection, schedule: Q01DX009 (ip), vehicle: saline): 111 % of control | T/C (dose: 100.0 mg/kg/injection, schedule: Q01DX005 (ip), vehicle: saline): 103 % of control | T/C [11]: 109 % of control | T/C (dose: 100.0 mg/kg/injection, schedule: Q04DX002 (ip), vehicle: saline): 96 % of control | T/C (dose: 200.0 mg/kg/injection, schedule: Q04DX002 (ip), vehicle: saline): 107 % of control

CC(=O)CCC(CCC(C)=O)(CCC(C)=O)[N+](=O)[O-]
T/C [1]: 104 % of control | T/C [2]: 104 % of control | T/C [3]: 98 % of control

CN(N=O)C(=O)NC1C=CCCC1 (stereo not given)
T/C (dose: 12.5 mg/kg/injection, schedule: Q01DX001 (ip), vehicle: other): 104 % of control | T/C (dose: 25.0 mg/kg/injection, schedule: Q01DX001 (ip), vehicle: other): 95 % of control | T/C (dose: 50.0 mg/kg/injection, schedule: Q01DX001 (ip), vehicle: other): 97 % of control | T/C (dose: 100.0 mg/kg/injection, schedule: Q01DX001 (ip), vehicle: other): 96 % of control | T/C (dose: 200.0 mg/kg/injection, schedule: Q01DX001 (ip), vehicle: other): 104 % of control

Sc1cc(Cl)c(Cl)cc1Cl
T/C (dose: 100.0 mg/kg/injection, schedule: Q01DX001 (ip), vehicle: saline with Tween-80): 97 % of control | T/C (dose: 200.0 mg/kg/injection, schedule: Q01DX001 (ip), vehicle: saline with Tween-80): 90 % of control

O=c1[nH]cnc2c1c(Br)cn2C1OC(CO)C(O)C1O (stereo not given)
T/C [1]: 110 % of control | T/C [2]: 112 % of control | T/C [3]: 121 % of control
